Measurements published in patent publication US6242425A, “Quinolinone glycoside, production process, and anti-allergic agent” (Dainippon Ink and Chemicals, Inc., priority 1998, dated 2001).

What was measured:
[1] = tested on: homologous passive cutaneous anaphylaxis (PCA) reaction in rats; experiment: Effect on homologous passive cutaneous anaphylaxis (PCA) reaction in rats; type: in vivo, rat (male wistar rats); conditions: vs vehicle control
Method: Effect on homologous passive cutaneous anaphylaxis (PCA) reaction in rats
This experimental animal model is caused by immediate type allergic reaction, namely, antigen-antibody reaction. In the following, the method of this pharmacological test will be explained.
Method: Male wistar rats (9 weeks old) were intradermally administered 0.05 ml of anti-serum against dinitrophenylated ascaris (DNP-As) into two sites on the shaved dorsal skin. 48 hours later, glycosyloxyquinolinone derivatives (test compounds) suspended in 0.5% methylcellulose (MC) were given i.v. at a dose of 0.5 mg/kg to the animals. 1 hour after administration of Test compounds, the animals were induced anaphylaxis by injection of saline (1 ml) dissolving 1 mg of trinitrophenylated ascaris (TNP-As) and 5 mg of Evans Blue into the tail vein of the animals. 30 minutes after induction of anaphylaxis, animals were anesthetized by ether and killed by bleeding, and were flayed dorsal skin. The leakage of dye was assessed by measuring the diameter (mean of shortest and longest diameter) of the blue spot on the inside surface of dorsal skin. As vehicle control group, only 0.5% MC solution was administered orally, and as positive control group, Tranilast suspended in 0.5% MC were administered orally at a dose of 100 mg/kg to the animals with the same method as the test compounds groups. Each experimental group consisted of 5 rats.
In the conditions of this experiment, it was considered that the compound, which inhibited PCA reaction by over forty (40) percent against that in vehicle control group, was evidently effective for immediate type allergy.
(§1) Inhibition (%)=(A-B)/A×100
A: leakage of dye in vehicle control group
B: leakage of dye in test compound group or positive control group

[2] = tested on: immediate type asthmatic response; experiment: Effect on experimental immediate type asthma model in guinea pigs (airway resistance); type: in vivo, guinea pig (male hartley guinea pigs); conditions: airway resistance 1 minute after challenge
Source text: (§2) Effect on experimental immediate and delayed type asthma model in guinea pigs
(§3) The asthma is typical allergic disease and we carried out this pharmacological test by experimental asthmatic model in guinea pigs in order to confirm that the compounds of the present invention, compound 14, 16, 20, 26 and 32, suppress immediate and delayed type asthmatic response. In the following, the method of the pharmacological test will be explained.
(§4) Method: Male hartley guinea pigs were sensitized by exposured aerosolized ovalbumine (OVA) (1% in saline) for 10 minutes per a day at eight times. The aerosol was generated by an ultrasonic nebulizer (NE-U12, Omron inc.). One week after final sensitization, the animals were challenged with inhalation of OVA (2% in saline) for 5 minutes. The animals were pretreated with metyrapone (10 mg/kg, i.v.) at 1 and 4 hours before the challenge, and pyrilamine (10 mg/kg, i.p.) at 30 minutes before the challenge. airway resistance in the conscious animals were measured for 1 minute with PULMOS-1 (made in Medical Interface Project Station Inc.) at 1 minute, 2, 4, 5, 6, 7, 8 and 23 to 24 hours after the challenge. Compound 14, 16, 20, 26 and 32 (test compound) suspended in 0.5% methylcellulose (MC) solution were given i.v. at doses of 0.2 and 0.5 mg/kg 1 hour before and 3 hours after the challenge. As a positive control group, Prednisolone was given orally at a dose of 10 mg/kg 2 hours and 16 hours before the challenge. As vehicle control group, only 0.5% MC solution was given orally.
(§5) The evaluation of the effect of the compounds on immediate and delayed type asthmatic response was undertaken with percentage of change in airway resistance 1 minute after the challenge and the area under the response curve for percentage of change in airway resistance between 4 and 8 hours after the challenge, respectively.
(§6) The inhibition (%) of the compounds for immediate and delayed type asthmatic response was calculated according to equation 2 and the result was shown in table 2. Each experimental group consisted of 8 guinea pigs.
as §1
(§7) A: percentage of change in airway resistance in vehicle control group
(§8) B: percentage of change in airway resistance in test compound group or positive control group

[3] = tested on: delayed type asthmatic response; experiment: Effect on experimental delayed type asthma model in guinea pigs (airway resistance); type: in vivo, guinea pig (male hartley guinea pigs); conditions: AUC of airway resistance change 4-8 hours after challenge
Source text: as §2, §3, §4, §5, §6, §1, §7, §8

[4] = 0.5 mg/kg i.v., 1 hour before challenge
[5] = 0.2 mg/kg i.v., 1 hour before and 3 hours after challenge
[6] = 0.5 mg/kg i.v., 1 hour before and 3 hours after challenge
[7] = positive control, 10 mg/kg orally, 2 and 16 hours before challenge

Row | Structure (SMILES) | inhibition (%) of PCA reaction [1, 4] [%] | immediate type asthma inhibition % [2, 5] [%] | immediate type asthma inhibition % [2, 6] [%] | delayed type asthma inhibition (%) [3, 5] [%] | delayed type asthma inhibition (%) [3, 6] [%] | other results
1 | CCCCCCCCOc1c(O[C@@H]2O[C@H](C(=O)O)[C@@H](O)[C@H](O)[C@H]2O)c2ccc(NC(=O)/C=C/c3cc(OC)c(O[C@@H]4O[C@H](C(=O)O)[C@@H](O)[C@H](O)[C@H]4O)c(OC)c3)cc2n(C)c1=O [Compound 14] | 54 | 29 | 37 | 64 | 73 | –
2 | CCCCCCCCOc1c(O)c2ccc(NC(=O)/C=C/c3cc(OC)c(O[C@@H]4O[C@H](C(=O)O)[C@@H](O)[C@H](O)[C@H]4O)c(OC)c3)cc2n(C)c1=O [Compound 15, 7-[3,5-dimethoxy-4-(β-D-glucuropyranosyloxy)cinnamoyl]amino-3-octyloxy-4-hydroxy-1-methyl-2(1H)-quinolinone] | 42 | – | – | – | – | –
3 | CCCCCCCCOc1c(O[C@@H]2O[C@H](C(=O)O)[C@@H](O)[C@H](O)[C@H]2O)c2ccc(NC(=O)/C=C/c3cc(OC)c(O)c(OC)c3)cc2n(C)c1=O [Compound 16, 7-(3,5-dimethoxy-4-hydroxycinnamoyl)amino-3-octyloxy-4-(β-D-glcuropyranosyloxy)-1-methyl-2(1H)-quinolinone] | 41 | 22 | 26 | 42 | 51 | –
4 | CCCCCCCCOc1c(O[C@@H]2O[C@H](CO)[C@@H](O)[C@H](O)[C@H]2O)c2ccc(NC(=O)/C=C/c3cc(OC)c(O[C@@H]4O[C@H](CO)[C@@H](O)[C@H](O)[C@H]4O)c(OC)c3)cc2n(C)c1=O [Compound 20, 7-[3,5-dimethoxy-4-(β-D-glucopyranosyloxy)cinnamoyl]amino-3-octyloxy-4-(β-D-glucopyranosyloxy)-1-methyl-2(1H)-quinolinone] | 49 | 27 | 38 | 57 | 61 | –
5 | CCCCCCCCOc1c(O)c2ccc(NC(=O)/C=C/c3cc(OC)c(O[C@@H]4O[C@H](CO)[C@@H](O)[C@H](O)[C@H]4O)c(OC)c3)cc2n(C)c1=O [Compound 21, 7-[3,5-dimethoxy-4-(β-D-glucopyranosyloxy)cinnamoyl]amino-3-octyloxy-4-hydroxy-1-methyl-2(1H)-quinolinone] | 46 | – | – | – | – | –
6 | CCCCCCCCOc1c(O[C@@H]2O[C@H](CO)[C@@H](O)[C@H](O)[C@H]2O)c2ccc(NC(=O)/C=C/c3cc(OC)c(O)c(OC)c3)cc2n(C)c1=O [Compound 22, 7-(3,5-dimethoxy-4-hydroxycinnamoyl)amino-3-octyloxy-4-(β-D-glucopyranosyloxy)-1-methyl-2(1H)-quinolinone] | 42 | – | – | – | – | –
7 | CCCCCCCCOc1c(O[C@@H]2O[C@H](CO)[C@H](O)[C@H](O)[C@H]2O)c2ccc(NC(=O)/C=C/c3cc(OC)c(O[C@@H]4O[C@H](CO)[C@H](O)[C@H](O)[C@H]4O)c(OC)c3)cc2n(C)c1=O [Compound 26, 7-[3,5-dimethoxy-4-(β-D-galactopyranosyloxy)cinnamoyl]amino-3-octyloxy-4-(β-D-galactopyranosyloxy)-1-methyl-2(1H)-quinolinone] | 50 | 25 | 37 | 52 | 63 | –
8 | CCCCCCCCOc1c(O)c2ccc(NC(=O)/C=C/c3cc(OC)c(O[C@@H]4O[C@H](CO)[C@H](O)[C@H](O)[C@H]4O)c(OC)c3)cc2n(C)c1=O [Compound 27, 7-[3,5-dimethoxy-4-(β-D-galactopyranosyloxy)cinnamoyl]amino-3-octyloxy-4-hydroxy-1-methyl-2(1H)-quinolinone] | 46 | – | – | – | – | –
9 | CCCCCCCCOc1c(O[C@@H]2O[C@H](CO)[C@H](O)[C@H](O)[C@H]2O)c2ccc(NC(=O)/C=C/c3cc(OC)c(O)c(OC)c3)cc2n(C)c1=O [Compound 28, 7-(3,5-dimethoxy-4-hydroxycinnamoyl)amino-3-octyloxy-4-(β-D-galactopyranosyloxy)-1-methyl-2(1H)-quinolinone] | 43 | – | – | – | – | –
10 | CCCCCCCCOc1c(O[C@H]2O[C@H](CO)[C@@H](O)[C@H](O)[C@@H]2O)c2ccc(NC(=O)/C=C/c3cc(OC)c(O[C@H]4O[C@H](CO)[C@@H](O)[C@H](O)[C@@H]4O)c(OC)c3)cc2n(C)c1=O [Compound 32, 7-[3,5-dimethoxy-4-(α-D-mannopyranosyloxy)cinnamoyl]amino-3-octyloxy-4-(α-D-mannopyranosyloxy)-1-methyl-2(1H)-quinolinone] | 45 | 26 | 34 | 49 | 57 | –
11 | CCCCCCCCOc1c(O)c2ccc(NC(=O)/C=C/c3cc(OC)c(O[C@H]4O[C@H](CO)[C@@H](O)[C@H](O)[C@@H]4O)c(OC)c3)cc2n(C)c1=O [Compound 33, 7-[3,5-dimethoxy-4-(α-D-mannopyranosyloxy)cinnamoyl]amino-3-octyloxy-4-hydroxy-1-methyl-2(1H)-quinolinone] | 40 | – | – | – | – | –
12 | CCCCCCCCOc1c(O[C@H]2O[C@H](CO)[C@@H](O)[C@H](O)[C@@H]2O)c2ccc(NC(=O)/C=C/c3cc(OC)c(O)c(OC)c3)cc2n(C)c1=O [Compound 34, 7-(3,5-dimethoxy-4-hydroxycinnamoyl)amino-3-octyloxy-4-(α-D-mannopyranosyloxy)-1-methyl-2(1H)-quinolinone] | 42 | – | – | – | – | –
13 | C[C@]12C=CC(=O)C=C1CC[C@@H]1[C@@H]2[C@@H](O)C[C@@]2(C)[C@H]1CC[C@]2(O)C(=O)CO [Prednisolone, reference compound] | – | – | – | – | – | immediate type asthma inhibition % [2, 7]: 27%; delayed type asthma inhibition (%) [3, 7]: 69%
14 | COc1ccc(/C=C/C(=O)Nc2ccccc2C(=O)O)cc1OC [Tranilast, reference compound] | – | – | – | – | – | inhibition (%) of PCA reaction ([1]; positive control, 100 mg/kg orally): 52%
